{
  "source": "patent US20030176511A1",
  "about": "“Compositions and methods for treating cardiovascular disorders” (priority 2000, published 2003)",
  "key": {"[1]": {"system": "plasma lipid peroxidation", "experiment": "Ex vivo peroxyl radical (AAPH)-induced lipid peroxidation of plasma from apoE−/−;LDLr−/− mice", "format": "in vivo", "conditions": "pooled plasma of bisphenol-treated mice, 5 mM AAPH, 37° C.", "experimental": "Pooled plasma obtained from at least 3 mice receiving control diet (circles) or diet supplemented with bisphenol (squares) were treated with 5 mM AAPH and incubated at 37° C. At the times indicted aliquots were removed and analysed for α-TOH (A) and CE-O(O)H (B). 100% α-TOH levels correspond to 28±3 and 20±2 μM for control and H 212/43 plasma, respectively. Data represents the mean±SD (n=4 independent experiments).\nOxidation of plasma, pooled from=3 mice was carried out by addition of the peroxyl radical generator (final concentrations 5 mM) and incubating the reaction mixture at 37° C. under air. Aliquots (50 μL) of the reaction mixture were removed, extracted in methanol/hexane (1:5, v/v), and the consumption of antioxidants and accumulation of lipid oxidation products determined.\nAnalyses of oxidised and non-oxidised lipids were carried out by RP-HPLC as described in Example 1 except that in some instances UV234 nm rather than post-column chemiluminescence detection was used to measure C18:2-OOH and the corresponding hydroxides (together referred to as CE-O(O)H) which show similar retention times under these chromatographic conditions. α-TQ, α-TOH, α-tocotrienol, D-isosascorbate and ascorbate were determined by HPLC with electrochemical detection. […] All compounds were quantified by peak area comparison with authentic standards. […]"}, "[2]": {"system": "tocopherol-mediated peroxidation (TMP)", "experiment": "Anti-TMP index", "format": "biochemical"}, "α-tocopheroxyl radical": {"system": "α-tocopheroxyl radical", "experiment": "Tocopheroxyl radical attenuating ability (TRAA)", "format": "biochemical", "conditions": "kobs in presence (+) or absence (−) of test compound"}, "[3]": {"system": "aortic lipoprotein lipid peroxidation", "experiment": "Aqueous and lipophilic parameters of apoE−/−;LDLr−/− mouse aortae", "format": "in vivo, mice", "experimental": "Pooled aortas from 7-8 mice obtained from control or bisphenol-treated mice were homogenized, the lipid extracted and subjected to HPLC with post-column chemiluminescence detection for analysis of cholesteryl ester hydroperoxides (CE-OOH). Chromatograms correspond to aortas of age-matched control (a or b) or drug-treated mice with low or high plasma levels of bisphenol (c and d, respectively). Under the conditions used, CE-OOH eluted between 8 and 9.5 min. The chemiluminescence negative peaks between 4 and 5.5 min correspond to the elution of tocopherols.\nMale apoE−/−;LDLr−/− mice (59 total), were maintained on standard R3 chow from weaning to 8 weeks of age (young controls, n=9). […]\nAnalyses of oxidised and non-oxidised lipids were carried out by RP-HPLC as described in Example 1 except that in some instances UV234 nm rather than post-column chemiluminescence detection was used to measure C18:2-OOH and the corresponding hydroxides (together referred to as CE-O(O)H) which show similar retention times under these chromatographic conditions. α-TQ, α-TOH, α-tocotrienol, D-isosascorbate and ascorbate were determined by HPLC with electrochemical detection. For oxidation of plasma, unesterified cholesterol (which remained non-oxidised in these experiments) was employed as internal standard for all polyunsaturated, lipid-soluble components analysed. […]"}, "[4]": {"system": "atherosclerosis in apoE−/−;LDLr−/− mice", "experiment": "Atherosclerosis (intima volume, descending thoracic aorta) in apoE−/−;LDLr−/− mice", "format": "in vivo", "conditions": "bisphenol for 14 weeks, compared with age-matched controls", "experimental": "Lesion formation was assessed by changes to intima volume when compared with young and age-matched controls receiving standard chow for 8 and 22 weeks, respectively. *Denotes a statistically significant difference with α<0.025 (Wilcoxon test).\nAortic lesions were assessed in segments centered around the third pair of intercostal artery branches in the descending thoracic aorta. Briefly, the fixed aortas were dehydrated in ethanol, cleared with xylene and embedded in paraffin. Serial sections (10 in total; each 2-3 μm thick and 100 μm apart) were cut and stained using Weigerts hematoxylin-van Gieson. Aortic thickening was assessed as the total volume of intima in the segment investigated in bisphenol-treated versus control samples.\nAortic volumes were determined by planimetry, using a Lucivid device (MicroBrightField, Colchester, Vermont, […]) attached to a Leitz DRM microscope that allowed the superposition of a computer monitor onto the cross sectional image."}},
  "data": [
    {"smiles": "CC(C)(C)c1cc(-c2cc(C(C)(C)C)c(O)c(C(C)(C)C)c2)cc(C(C)(C)C)c1O", "note": "[Bisphenol]", "values": [
      {"measurement": "CE-OOH detected after 12 h of oxidation", "setting": "[1]", "value": "< 1", "unit": "µM"},
      {"measurement": "α-TOH after 12 h of oxidation", "setting": "[1]", "value": "remained unaltered"},
      {"measurement": "Anti-TMP index", "setting": "[2]", "value": 3.2},
      {"measurement": "TRAA (decay of α-tocopheroxyl radical; kobs(+)/kobs(−))", "setting": "α-tocopheroxyl radical", "value": "Immediate decay"},
      {"measurement": "level of oxidised lipids in aortas, fold lower than control", "setting": "[3]; drug-treated animals with high plasma levels of bisphenol", "value": 1000, "unit": "fold"},
      {"measurement": "level of oxidised lipids in aortas, fold lower than control", "setting": "[3]; drug-treated animals with low plasma levels of bisphenol", "value": 10, "unit": "fold"},
      {"measurement": "lesion size (intimal volume, descending thoracic aorta)", "setting": "[4]", "value": "substantially decreased the lesion size"}
    ]}
  ]
}
